Measured values taken from patent publication US11241437B2, “Heterocyclic compounds, preparation methods and uses thereof” (InventisBio Co., Ltd., priority 2019, dated 2022).
Converted amounts (≈) assume the structure as drawn.

Experiments:
Format in all cases: physicochemical
[1] = pKa of Compounds 1 and 2
[2] = Interconversion studies of solid forms of Compound 1 (slurry)
Procedure: Interconversion Studies: Equal amounts (˜7 mg) of Form I, II and III were mixed together and then suspended in 0.5 mL of different solvents at room temperature or 50° C., respectively. Residual solids were collected by filtration and characterized at appropriate time. Additionally, Form IV (˜12 mg) was slurried in 0.5 ml, water or MeOH/water (1/4) at RT or 50° C. for 3 days. Residual solids were collected by filtration and analyzed by XRPD.

[3] = Polymorph characterization summary of Compound 1 forms (form stability)
Excerpt: In the polymorph screening, five XRPD Patterns (FIG. 11) were generated, and four forms were identified including 2 anhydrates and 2 hydrates.

[4] = Manual grinding of Form A and Form B of Compound 2; details: ground manually for 5 min
Procedure: About 10-20 mg of Compound 2 in Form A and Form B were ground manually for 5 min, respectively.

[5] = Solid state stability of Form B of Compound 2
Procedure: Method 2. HPLC analysis was performed with an Agilent HPLC 1260 series instrument. A representative HPLC method used for purity, solubility and stability study for Compound 2 analysis.
Solid State Stability of Form B: About 10 mg of Form B was open placed at 40° C./75% RH and 60° C. for 7 days and at 25° C./92.5% RH for 10 days, respectively. Prepare samples in duplicate (n=2) per condition. The solids were analyzed by XRPD and HPLC (only for 40° C./75% RH and 60° C.).

[6] = Solubility of Form A and Form B of Compound 2 in bio-relevant media; details: for solubility at 0.5 h / solubility at 2 h / solubility at 24 h: 37 °C, thermodynamic from solid; for Solubility: 37° C.; for XRPD patterns of remaining solids: FaSSIF and water, at 24 hours
Procedure: Solubility in Bio-relevant Media: Form A and Form B was added into SGF, FeSSIF, FaSSIF and water, respectively. The suspensions were kept shaking at 37° C. with 200 rpm for 24 hours. At 0.5 h, 2 h and 24 h, suspensions were filtered and drug concentrations of filtrates were analyzed by HPLC. pH of filtrates was measured at each time point. The remaining solids at 24 hours were characterized by XRPD.

[7] = Dynamic moisture sorption analysis (DVS) of Form B of Compound 2
Procedure: Method 2. Used for studies with solid state of Compound 2. Moisture sorption/desorption data was collected on IGAsorp Dynamic Moisture Sorption Analyzer. The sample was placed into a tarred sample chamber and automatically weighed. The sample was dried at 50° C. until the humidity was less than 0.3% and cooled to 25° C. The instrument parameters were set as given below.

[8] = Competitive slurry (interconversion) of Form A, Form B and Form C of Compound 2; details: RT or 50° C.
Procedure: Interconversion Studies: Competitive slurry of Form A, Form B and Form C was performed in acetone and acetone/water (1/4) at RT or 50° C., with details shown below.

[9] = Solubility of Form A of Compound 2 in organic solvents; details: for Solubility: organic solvent or mixture
[10] = Solubility of amorphous Compound 1 in solvents (anti-solvent precipitation screening); details: RT
[11] = Solubility of Compound 1 solid forms in bio-relevant media and water; details: FaSSIF
Procedure: Solubility Studies: Solubility of Form IV was tested in three bio-relevant media (Simulated Gastric Fluid (SGF), Fasted State Simulated Intestinal Fluid (FaSSIF), and Fed State Simulated Intestinal Fluid (FeSSIF)) and water. […] Form IV (˜10 mg) was weighed into 2 mL of four media to make suspensions respectively, and about 10 mg of the amorphous starting material was also added into 2 mL of FaSSIF. Then all suspensions were shaken at 37° C. with 200 rpm for up to 24 hours. At 0.5, 2 and 24 hours, about 0.7 mL of each suspension was filtered. The filtrate was analyzed by HPLC and pH meter, and the residual solids were also checked by XRPD at 24 hours.

C=CC(=O)N1C[C@H](C)N(c2nc(=O)n(-c3c(C4CC4)ncnc3C3CC3)c3nc(-c4c(N)cccc4F)c(Cl)cc23)C[C@H]1C [Compound 1]
pKa [1]: ~3

C=CC(=O)N1C[C@H](C)N(c2nc(=O)n(-c3c(C4CC4)ncnc3C3CC3)c3nc(-c4c(N)cccc4F)c(Cl)cc23)C[C@H]1C [Form I, II and III]
XRPD of wet cake ([2]; EA/MTBE (1/4), 50° C., 3 days): Form IV | XRPD of wet cake ([2]; EA/MTBE (1/4), RT, 3 days): Form IV | XRPD of wet cake ([2]; IPA, 50° C., 4 days): Form IV | XRPD of wet cake ([2]; IPA, RT, 3 days): Pattern 1 | XRPD of wet cake ([2]; MeOH/Water (1/4), 50° C., 3 days): Form IV | XRPD of wet cake ([2]; MeOH/Water (1/4), RT, 3 days): Form II

C=CC(=O)N1C[C@H](C)N(c2nc(=O)n(-c3c(C4CC4)ncnc3C3CC3)c3nc(-c4c(N)cccc4F)c(Cl)cc23)C[C@H]1C [Form III]
Stability of the solid form [3]: not stable

C=CC(=O)N1C[C@H](C)N(c2nc(=O)n(-c3c(C4CC4)ncnc3C3CC3)c3nc(-c4c(N)cccc4F)c(F)cc23)C[C@H]1C [Compound 2]
pKa [1]: ~3

C=CC(=O)N1C[C@H](C)N(c2nc(=O)n(-c3c(C4CC4)ncnc3C3CC3)c3nc(-c4c(N)cccc4F)c(F)cc23)C[C@H]1C (single isomer, unassigned) [Form B]
Crystal form after grinding [4]: crystallinity of Form B became weak | XRPD ([5]; 25° C./92.5% RH, After 10 d): Unchanged | Purity-7 d ([5]; 40° C./75% RH): 98.97 Area % | XRPD ([5]; 40° C./75% RH, After 7 d): Unchanged | Purity decrease ([5]; 60° C. for 7 days): 0.16% | Purity-7 d ([5]; 60° C.): 98.82 Area % | XRPD ([5]; 60° C., After 7 d): Unchanged | Initial Purity ([5]; initial, before storage): 98.98 Area % | solubility at 0.5 h ([6]; FaSSIF, pH 6.5, fassif, FaSSIF (pH 6.5), 0.5 h): 16 µg/mL (≈ 26.7 µM) | solubility at 2 h ([6]; FaSSIF, pH 6.5, fassif, FaSSIF (pH 6.5), 2 h): 51 µg/mL (≈ 85.2 µM) | solubility at 24 h ([6]; FaSSIF, pH 6.5, fassif, FaSSIF (pH 6.5), 24 h): 18 µg/mL (≈ 30.1 µM) | solubility at 0.5 h ([6]; FeSSIF, pH 5, fessif, FeSSiF (pH 5.0), 0.5 h): 44 µg/mL (≈ 73.5 µM) | solubility at 2 h ([6]; FeSSIF, pH 5, fessif, FeSSiF (pH 5.0), 2 h): 43 µg/mL (≈ 71.8 µM) | solubility at 24 h ([6]; FeSSIF, pH 5, fessif, FeSSiF (pH 5.0), 24 h): 37 µg/mL (≈ 61.8 µM) | Solubility ([6]; SGF (pH 1.2), 24 h): 56 µg/mL (≈ 93.5 µM) | solubility at 0.5 h ([6]; SGF, pH 1.2, simulated gastric fluid, SGF (pH 1.2), 0.5 h): 60 µg/mL (≈ 100 µM) | solubility at 2 h ([6]; SGF, pH 1.2, simulated gastric fluid, SGF (pH 1.2), 2 h): 58 µg/mL (≈ 96.9 µM) | XRPD patterns of remaining solids ([6]; SGF, FeSSIF): unchanged | Solubility ([6]; Water, 24 h): 19 µg/mL (≈ 31.7 µM) | solubility at 0.5 h ([6]; water, 0.5 h): 21 µg/mL (≈ 35.1 µM) | solubility at 2 h ([6]; water, 2 h): 20 µg/mL (≈ 33.4 µM) | Crystal form after DVS testing [7]: without changing of crystal form | Hygroscopicity (DVS) ([7]; 25° C.): slightly hygroscopic | Water absorbed (DVS) ([7]; at 0-80% RH, 25° C.): ~0.84%

C=CC(=O)N1C[C@H](C)N(c2nc(=O)n(-c3c(C4CC4)ncnc3C3CC3)c3nc(-c4c(N)cccc4F)c(Cl)cc23)C[C@H]1C [Form II]
Stability of the solid form [3]: not stable

C=CC(=O)N1C[C@H](C)N(c2nc(=O)n(-c3c(C4CC4)ncnc3C3CC3)c3nc(-c4c(N)cccc4F)c(F)cc23)C[C@H]1C [Form A, Form B and Form C]
Form after competitive slurry ([8]; non-aqueous solvent (acetone), after 1 day): completely converted to Form B | Form after competitive slurry ([8]; solvent-aqueous solution (acetone/water 1/4), after 7 days): showed tendency to convert to Form B

C=CC(=O)N1C[C@H](C)N(c2nc(=O)n(-c3c(C4CC4)ncnc3C3CC3)c3nc(-c4c(N)cccc4F)c(F)cc23)C[C@H]1C (single isomer, unassigned) [Form A]
Crystal form after grinding [4]: unchanged | Solubility in other solvents [9]: practically insoluble | Solubility ([9]; DCM, read-out: Solubility in DCM): > 92000 µg/mL | Solubility ([9]; MeOH, butanone, THF, ACN, acetone, read-out: Solubility in MeOH, butanone, THF, ACN and acetone): 20000 to 33000 µg/mL (≈ 33400 to 55100 µM) | Solubility ([6]; FaSSIF (pH 6.5), 0.5 h): 19 µg/mL (≈ 31.7 µM) | Solubility ([6]; FaSSIF (pH 6.5), 2 h): 29 µg/mL (≈ 48.4 µM) | Solubility ([6]; FaSSIF (pH 6.5), 24 h): 24 µg/mL (≈ 40.1 µM) | Solubility ([6]; FeSSiF (pH 5.0), 0.5 h): 41 µg/mL (≈ 68.5 µM) | Solubility ([6]; FeSSiF (pH 5.0), 2 h): 45 µg/mL (≈ 75.2 µM) | Solubility ([6]; FeSSiF (pH 5.0), 24 h): 42 µg/mL (≈ 70.2 µM) | Solubility ([6]; SGF (pH 1.2), 0.5 h): 67 µg/mL (≈ 112 µM) | Solubility ([6]; SGF (pH 1.2), 2 h): 72 µg/mL (≈ 120 µM) | Solubility ([6]; SGF (pH 1.2), 24 h): 170 µg/mL (≈ 284 µM) | XRPD patterns of remaining solids ([6]; SGF, FeSSIF): unchanged | Solubility ([6]; Water, 0.5 h): 15 µg/mL (≈ 25.1 µM) | Solubility ([6]; Water, 2 h): 25 µg/mL (≈ 41.8 µM) | Solubility ([6]; Water, 24 h): 43 µg/mL (≈ 71.8 µM)

C=CC(=O)N1C[C@H](C)N(c2nc(=O)n(-c3c(C4CC4)ncnc3C3CC3)c3nc(-c4c(N)cccc4F)c(Cl)cc23)C[C@H]1C [Amorphous material]
Solubility in MTBE, water and heptane [10]: low solubility | Solubility in most solvents [10]: high solubility | Solubility ([11]; 37° C., 0.5 h): 302 µg/mL (≈ 491 µM) | Solubility ([11]; 37° C., 2 h): 263 µg/mL (≈ 428 µM) | Solubility ([11]; 37° C., 24 h): 283 µg/mL (≈ 460 µM) | XRPD-24 h of residual solids ([11]; 37° C., 24 h): unchanged | Solubility in FaSSIF ([11]; time point not stated, listed as amorphous starting material): 300 µg/mL (≈ 488 µM)
